Experimental data: the supplement of paper PMC9663587

Experiments:
[1] = compound: CCc1cnn2c(NCc3ccc[n+]([O-])c3)cc(N3CCCC[C@H]3CCO)nc12
LEE011/Ribociclib [2] = compound: T1, CN(C)C(=O)c1cc2cnc(Nc3ccc(N4CCNCC4)cn3)nc2n1C1CCCC1 [LEE011/Ribociclib]
Doxorubicin = compound: COc1cccc2c1C(=O)c1c(O)c3c(c(O)c1C2=O)C[C@@](O)(C(=O)CO)C[C@@H]3O[C@H]1C[C@H](N)[C@H](O)[C@H](C)O1 [Doxorubicin]
Pictilisib/GDC0941 = compound: CS(=O)(=O)N1CCN(Cc2cc3nc(-c4cccc5[nH]ncc45)nc(N4CCOCC4)c3s2)CC1 [Pictilisib/GDC0941]
Ceritinib/LDK378 = compound: Cc1cc(Nc2ncc(Cl)c(Nc3ccccc3S(=O)(=O)C(C)C)n2)c(OC(C)C)cc1C1CCNCC1 [Ceritinib/LDK378]
[3] = compound: Cc1nn(C)c(COc2ccc(N3CCN(S(=O)(=O)N(C)C)CC3)cc2)c1-c1cccc2c(CCCOc3cccc4ccccc34)c(C(=O)O)n(CCN3CCOCC3)c12
YKL-5-124 = compound: C=CC(=O)Nc1ccc(C(=O)Nc2[nH]nc3c2CN(C(=O)N[C@H](CN(C)C)c2ccccc2)C3(C)C)cc1 [YKL-5-124]; experiment: increase in dead-cell fraction, 72 h; higher = more death;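 further: breast cancer cell lines in 384-well plates, stained with Hoechst plus LIVE/DEAD far red dye and imaged, cells above an LDR intensity threshold counted dead, Hoechst-negative corpses included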
BSJ-03-123 = compound: CC(=O)c1c(C)c2cnc(Nc3ccc(N4CCN(CCOCCOCCOCCNC(=O)COc5cccc6c5C(=O)N(C5CCC(=O)NC5=O)C6=O)CC4)cn3)nc2n(C2CCCC2)c1=O [BSJ-03-123]; experiment: as above
[4] = compound: CC(=O)c1c(C)c2cnc(Nc3ccc(N4CCNCC4)cn3)nc2n(C2CCCC2)c1=O; experiment: as above
[5] = compound: CCN1CCN(Cc2ccc(Nc3ncc(F)c(-c4cc(F)c5nc(C)n(C(C)C)c5c4)n3)nc2)CC1; experiment: as above
Neratinib/HKI272 = compound: CCOc1cc2ncc(C#N)c(Nc3ccc(OCc4ccccn4)c(Cl)c3)c2cc1NC(=O)/C=C/CN(C)C [Neratinib/HKI272]; experiment: as above
[6] = compound: CCc1cnn2c(NCc3ccc[n+]([O-])c3)cc(N3CCCC[C@H]3CCO)nc12; experiment: as above
LEE011/Ribociclib [7] = compound: T1, LEE011/Ribociclib; experiment: as above
THZ531 = compound: CN(C)C/C=C/C(=O)Nc1ccc(C(=O)N2CCC[C@@H](Nc3ncc(Cl)c(-c4c[nH]c5ccccc45)n3)C2)cc1 [THZ531]; experiment: as above
THZ1 = compound: CN(C)C/C=C/C(=O)Nc1ccc(C(=O)Nc2cccc(Nc3ncc(Cl)c(-c4c[nH]c5ccccc45)n3)c2)cc1 [THZ1]; experiment: as above
Flavopiridol = compound: CN1CC[C@H](c2c(O)cc(O)c3c(=O)cc(-c4ccccc4Cl)oc23)[C@H](O)C1 [Flavopiridol]; experiment: as above
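Wherever GR50, 72 h is given: breast cancer and non-malignant breast epithelial cell lines, Deep Dye Drop or Dye Drop imaging, nine half-log doses, GR normalized to time-zero plates and DMSO-only controls.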

## MCF10A
[1]
  GR50, 72 h: 0.0162 µM
LEE011/Ribociclib [2]
  GR50, 72 h: > 10 µM
Doxorubicin
  GR50, 72 h: 0.0108 µM
Pictilisib/GDC0941
  GR50, 72 h: 1.88 µM
Ceritinib/LDK378
  GR50, 72 h: 2.99 µM
[3]
  GR50, 72 h: > 10 µM
YKL-5-124; 0.001 µM
  increase in dead-cell fraction: 0.0412
YKL-5-124; 0.003162 µM
  increase in dead-cell fraction: 0.118
YKL-5-124; 0.01 µM
  increase in dead-cell fraction: 0.138
YKL-5-124; 0.03162 µM
  increase in dead-cell fraction: 0.146
YKL-5-124; 0.1 µM
  increase in dead-cell fraction: 0.116
YKL-5-124; 0.3162 µM
  increase in dead-cell fraction: 0.149
YKL-5-124; 1 µM
  increase in dead-cell fraction: 0.159
YKL-5-124; 3.162 µM
  increase in dead-cell fraction: 0.118
YKL-5-124; 10 µM
  increase in dead-cell fraction: 0.167
BSJ-03-123; 0.001 µM
  increase in dead-cell fraction: 0.0008
BSJ-03-123; 0.003162 µM
  increase in dead-cell fraction: -0.0013
BSJ-03-123; 0.01 µM
  increase in dead-cell fraction: -0.0008
BSJ-03-123; 0.03162 µM
  increase in dead-cell fraction: 0.0005
BSJ-03-123; 0.1 µM
  increase in dead-cell fraction: 0.0018
BSJ-03-123; 0.3162 µM
  increase in dead-cell fraction: -0.0009
BSJ-03-123; 1 µM
  increase in dead-cell fraction: 0.0005
BSJ-03-123; 3.162 µM
  increase in dead-cell fraction: 0.0017
BSJ-03-123; 10 µM
  increase in dead-cell fraction: 0.153
[4]; 0.0003162 µM
  increase in dead-cell fraction: 0.0006
[4]; 0.001 µM
  increase in dead-cell fraction: 0.0003
[4]; 0.003162 µM
  increase in dead-cell fraction: -0.0024
[4]; 0.01 µM
  increase in dead-cell fraction: -0.0041
[4]; 0.03162 µM
  increase in dead-cell fraction: -0.0059
[4]; 0.1 µM
  increase in dead-cell fraction: -0.0084
[4]; 0.3162 µM
  increase in dead-cell fraction: -0.0088
[4]; 1 µM
  increase in dead-cell fraction: -0.0079
[4]; 3.162 µM
  increase in dead-cell fraction: -0.005
[5]; 0.001 µM
  increase in dead-cell fraction: -0.0006
[5]; 0.003162 µM
  increase in dead-cell fraction: -0.0032
[5]; 0.01 µM
  increase in dead-cell fraction: -0.0061
[5]; 0.03162 µM
  increase in dead-cell fraction: -0.0084
[5]; 0.1 µM
  increase in dead-cell fraction: -0.0079
[5]; 0.3162 µM
  increase in dead-cell fraction: -0.0081
[5]; 1 µM
  increase in dead-cell fraction: -0.0035
[5]; 3.162 µM
  increase in dead-cell fraction: -0.0012
[5]; 10 µM
  increase in dead-cell fraction: 0.0346
Neratinib/HKI272; 0.0003162 µM
  increase in dead-cell fraction: -0.0011
Neratinib/HKI272; 0.001 µM
  increase in dead-cell fraction: -0.0018
Neratinib/HKI272; 0.003162 µM
  increase in dead-cell fraction: -0.0008
Neratinib/HKI272; 0.01 µM
  increase in dead-cell fraction: -0.0018
Neratinib/HKI272; 0.03162 µM
  increase in dead-cell fraction: -0.0064
Neratinib/HKI272; 0.1 µM
  increase in dead-cell fraction: -0.004
Neratinib/HKI272; 0.3162 µM
  increase in dead-cell fraction: 0.003
Neratinib/HKI272; 1 µM
  increase in dead-cell fraction: 0.0444
Neratinib/HKI272; 3.162 µM
  increase in dead-cell fraction: 0.164
[6]; 0.0001 µM
  increase in dead-cell fraction: 0.0013
[6]; 0.0003162 µM
  increase in dead-cell fraction: 0.0005
[6]; 0.001 µM
  increase in dead-cell fraction: 0.0001
[6]; 0.003162 µM
  increase in dead-cell fraction: 0.0053
[6]; 0.01 µM
  increase in dead-cell fraction: 0.0077
[6]; 0.03162 µM
  increase in dead-cell fraction: 0.5
[6]; 0.1 µM
  increase in dead-cell fraction: 0.575
[6]; 0.3162 µM
  increase in dead-cell fraction: 0.559
[6]; 1 µM
  increase in dead-cell fraction: 0.523
LEE011/Ribociclib [7]; 0.001 µM
  increase in dead-cell fraction: -0.0014
LEE011/Ribociclib [7]; 0.003162 µM
  increase in dead-cell fraction: 0.0018
LEE011/Ribociclib [7]; 0.01 µM
  increase in dead-cell fraction: -0.0007
LEE011/Ribociclib [7]; 0.03162 µM
  increase in dead-cell fraction: -0.0008
LEE011/Ribociclib [7]; 0.1 µM
  increase in dead-cell fraction: -0.0006
LEE011/Ribociclib [7]; 0.3162 µM
  increase in dead-cell fraction: 0.0001
LEE011/Ribociclib [7]; 1 µM
  increase in dead-cell fraction: -0.0005
LEE011/Ribociclib [7]; 3.162 µM
  increase in dead-cell fraction: -0.0003
LEE011/Ribociclib [7]; 10 µM
  increase in dead-cell fraction: 0.0032
THZ531; 0.0001 µM
  increase in dead-cell fraction: -0.0006
THZ531; 0.0003162 µM
  increase in dead-cell fraction: -0.0007
THZ531; 0.001 µM
  increase in dead-cell fraction: 0.0006
THZ531; 0.003162 µM
  increase in dead-cell fraction: -0.0006
THZ531; 0.01 µM
  increase in dead-cell fraction: -0.0015
THZ531; 0.03162 µM
  increase in dead-cell fraction: 0.0007
THZ531; 0.1 µM
  increase in dead-cell fraction: 0.0013
THZ531; 0.3162 µM
  increase in dead-cell fraction: 0.0057
THZ531; 1 µM
  increase in dead-cell fraction: 0.795
THZ1; 0.0001 µM
  increase in dead-cell fraction: -0.0014
THZ1; 0.0003162 µM
  increase in dead-cell fraction: 0.0002
THZ1; 0.001 µM
  increase in dead-cell fraction: 0.0012
THZ1; 0.003162 µM
  increase in dead-cell fraction: -0.0011
THZ1; 0.01 µM
  increase in dead-cell fraction: -0.0007
THZ1; 0.03162 µM
  increase in dead-cell fraction: 0.0074
THZ1; 0.1 µM
  increase in dead-cell fraction: 0.0416
THZ1; 0.3162 µM
  increase in dead-cell fraction: 0.0884
THZ1; 1 µM
  increase in dead-cell fraction: 0.642
Flavopiridol; 0.0001 µM
  increase in dead-cell fraction: 0.0016
Flavopiridol; 0.0003162 µM
  increase in dead-cell fraction: 0
Flavopiridol; 0.001 µM
  increase in dead-cell fraction: -0.0007
Flavopiridol; 0.003162 µM
  increase in dead-cell fraction: -0.0005
Flavopiridol; 0.01 µM
  increase in dead-cell fraction: 0
Flavopiridol; 0.03162 µM
  increase in dead-cell fraction: 0.0039
Flavopiridol; 0.1 µM
  increase in dead-cell fraction: 0.0255
Flavopiridol; 0.3162 µM
  increase in dead-cell fraction: 0.407
Flavopiridol; 1 µM
  increase in dead-cell fraction: 0.87
